Assay results from article PMC8936434 (Frontiers in Pharmacology, 2022).
Read-outs that look alike come from different tables or passages of the source.

Legend:
[1] = test system: SW1573; experiment: In vitro P-gp assay: antiproliferative activity in wild-type SW1573 cells; assay type: cell-based; settings: Homo sapiens
Description: (§1) Compounds were tested against both cell lines in the presence or absence of 10 µM verapamil (a known P-gp and CYP3A4/5 inhibitor).

[2] = In vitro P-gp assay: antiproliferative activity in P-gp-overexpressing SW1573/P-gp cells; settings: human
Description: as §1

[3] = test system: HepG2 cells; experiment: HepG2 cell viability (MTT assay); assay type: cell-based; settings: Homo sapiens, mean ± SD, 3 experiments
Description: Human hepatoma (HepG2) cells (European Collection of Authenticated Cell Cultures) were cultured in Dulbecco’s modified Eagle’s medium (DMEM) supplemented with 10% heat-inactivated fetal bovine serum (FBS) and 2 mM L-glutamine at 37°C in 5% CO2 humidified atmosphere.

[4] = test system: HepG2 cells; experiment: LDH release from HepG2 cells; assay type: cell-based, Human
[5] = test system: primary rat hepatocytes; experiment: Primary rat hepatocyte viability (trypan blue exclusion assay); assay type: cell-based; settings: read-out: IC50, number of viable cells
[6] = test system: primary rat hepatocytes; experiment: LDH release from primary rat hepatocytes; assay type: cell-based
[7] = biological target: hERG K+ channel (Kv11.1) (Homo sapiens, UniProt Q12809); experiment: hERG (Kv11.1) current, whole-cell patch-clamp in hERG-HEK293 cells; assay type: cell-based
Description: hERG-HEK293 cells (BPS Bioscience, San Diego, United States), expressing hERG K^+ channel (Kv11.1), were cultured in Minimal Essential Medium (MEM) supplemented with 10% fetal bovine serum, 1% non-essential amino acids, 1% Na pyruvate, 1% penicillin/streptomycin, and 400 μg/ml geneticin ([Lazzerini et al., 2021]).
The bath solution contained (in mM): 136 NaCl, 5.4 KCl, 10 HEPES, 10 D-glucose ∙ H2O, 1 CaCl2 ∙ 2 H2O, 1 MgCl2 ∙ 6 H2O, pH 7.4 with NaOH, whereas the pipette solution consisted of (in mM): 130 KCl, 10 EGTA, 10 HEPES, 5 MgATP, 1 MgCl2 ∙ 6 H2O, pH 7.2 with KOH.
Whole-cell recording was performed as previously described ([Lazzerini et al., 2021]), and a depolarizing step from a holding potential of […] was applied to elicit the Kv11.1 current. Tail current was evoked by repolarizing the cell membrane to −50 mV for 4 s.

[8] = test system: zebrafish ABCB4; set-up: method as in earlier work; settings: concentrations up to 100 µM; ref [67]; cited from earlier work
[9] = test system: SW1573/P-gp; experiment: In vitro P-gp assay: antiproliferative activity in P-gp-overexpressing SW1573/P-gp cells; settings: P-gp-overexpressing cells
Description: as §1

[10] = test system: primary rat hepatocytes; experiment: GSH depletion in isolated rat hepatocytes; assay type: cell-based; settings: compared to Dox
Description: Gluthatione (GSH) depletion was evaluated after 24, 48, or 72 h treatment with both anthracyclines. Isolated rat hepatocytes were centrifuged at 400 g for 3 min, and the pellet was used for measuring intracellular GSH by means of the spectrophotometric method based on the conversion of the sulfhydryl reagent 5,5′-dithiobis-(2-nitrobenzoic acid) (DTNB) to the yellow derivative 5′-thio-2-nitrobenzoic acid (TNB) at 412 nm ([Fau et al., 1992]).

[11] = test system: zebrafish embryos; experiment: Zebrafish embryo toxicity
Description: After 30 min, the eggs were collected, rinsed twice from debris using fresh embryo medium (Instant ocean), and transferred into Petri dishes containing the embryo medium.
Fertilized eggs were selected under a binocular stereomicroscope (PXS-VI, Optica) and transferred into 24-well plates. […] The embryo medium and 0.1% DMSO were used as controls. Treated embryos and controls were then incubated at 28 ± 0.5°C. Each experiment was repeated three times from three independent breedings. In each experiment, at least 3 wells with 12 embryos per treatment per concentration were used.
The zebrafish embryo toxicity assay was performed when fertilization rate was ≥90%. An assay was considered valid if the overall survival of embryos in negative controls was ≥90% until hatching.
All embryos were inspected for morphological characteristics at different developmental stages (48 and 72 hpf) as described by [Kimmel (1989)]. Lethal and teratogenic effects were recorded according to the Organisation for Economic Co-operation and Development (OECD) (236) guidelines for testing of chemicals. Mortality was determined by counting embryos with or without a visible heart beat at 72 hpf. For visual documentation of the malformations and heartbeat, embryos were imaged and recorded using a camera connected to the microscope (CKX41; Olympus, Tokyo, Japan). Each heartbeat was manually counted for 20 s and multiplied by 3 to calculate heart rate (beat/minute) ([Hoage et al., 2012]). At least three embryos per group were recorded and their heart beat counted.

[12] = biological target: recombinant human CYP3A4 (Homo sapiens, UniProt P08684); experiment: In vitro inhibition of human CYP3A4
Description: Kinetic assays were carried out in a final volume of 100 µl containing 10 µM substrate, 2.5 nM recombinant CYP3A4, various concentrations of the tested compounds, and 20% NADPH regenerating system in 100 mM Tris–HCl (pH 7.4). Incubations took place in duplicate at 37°C in 96-multiwell plates; fluorescence was measured with a Victor2 plate reader (PerkinElmer Life Sciences, Turku, Finland). The reaction was started by adding NADPH, and fluorescence was measured at 2-min intervals for 40 min using excitation at 405 nm and emission at 460 nm.

[13] = test system: primary rat hepatocytes; experiment: Lipid peroxidation (MDA) in primary rat hepatocytes; settings: compared to Dox
[14] = 10 µM applied at 6 hpf, read at 72 hpf

hERG K+ channel (Kv11.1), sequence (Q12809 whole entry): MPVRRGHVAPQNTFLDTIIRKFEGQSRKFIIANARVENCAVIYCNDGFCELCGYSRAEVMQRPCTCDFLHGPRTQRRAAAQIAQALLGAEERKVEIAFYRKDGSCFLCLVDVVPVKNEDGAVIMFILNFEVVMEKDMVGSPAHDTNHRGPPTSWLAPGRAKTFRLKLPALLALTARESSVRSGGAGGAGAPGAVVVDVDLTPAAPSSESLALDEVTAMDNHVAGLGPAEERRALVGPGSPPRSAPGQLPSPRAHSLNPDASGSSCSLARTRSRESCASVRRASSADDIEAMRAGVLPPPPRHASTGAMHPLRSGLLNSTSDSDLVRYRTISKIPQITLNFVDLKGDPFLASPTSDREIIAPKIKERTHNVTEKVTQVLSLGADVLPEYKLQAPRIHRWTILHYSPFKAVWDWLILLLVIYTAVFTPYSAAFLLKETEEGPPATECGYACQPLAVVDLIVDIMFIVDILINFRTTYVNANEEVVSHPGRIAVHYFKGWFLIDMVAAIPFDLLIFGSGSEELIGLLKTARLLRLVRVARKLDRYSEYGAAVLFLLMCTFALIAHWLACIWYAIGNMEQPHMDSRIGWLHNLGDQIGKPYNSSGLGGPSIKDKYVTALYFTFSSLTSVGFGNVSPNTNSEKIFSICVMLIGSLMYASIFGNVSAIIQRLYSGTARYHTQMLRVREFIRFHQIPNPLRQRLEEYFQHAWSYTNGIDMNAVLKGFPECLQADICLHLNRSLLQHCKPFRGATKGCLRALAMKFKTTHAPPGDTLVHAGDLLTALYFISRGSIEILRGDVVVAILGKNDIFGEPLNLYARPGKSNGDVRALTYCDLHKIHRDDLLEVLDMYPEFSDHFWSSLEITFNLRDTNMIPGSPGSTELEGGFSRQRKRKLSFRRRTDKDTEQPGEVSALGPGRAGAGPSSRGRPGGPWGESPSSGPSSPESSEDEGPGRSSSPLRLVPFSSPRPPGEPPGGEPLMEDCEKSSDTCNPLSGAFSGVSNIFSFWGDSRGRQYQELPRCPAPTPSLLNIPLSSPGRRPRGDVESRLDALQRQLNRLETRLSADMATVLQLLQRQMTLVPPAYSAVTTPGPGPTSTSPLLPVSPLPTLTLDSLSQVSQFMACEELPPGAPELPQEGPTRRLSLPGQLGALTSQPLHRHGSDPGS
recombinant human CYP3A4, sequence (P08684 whole entry): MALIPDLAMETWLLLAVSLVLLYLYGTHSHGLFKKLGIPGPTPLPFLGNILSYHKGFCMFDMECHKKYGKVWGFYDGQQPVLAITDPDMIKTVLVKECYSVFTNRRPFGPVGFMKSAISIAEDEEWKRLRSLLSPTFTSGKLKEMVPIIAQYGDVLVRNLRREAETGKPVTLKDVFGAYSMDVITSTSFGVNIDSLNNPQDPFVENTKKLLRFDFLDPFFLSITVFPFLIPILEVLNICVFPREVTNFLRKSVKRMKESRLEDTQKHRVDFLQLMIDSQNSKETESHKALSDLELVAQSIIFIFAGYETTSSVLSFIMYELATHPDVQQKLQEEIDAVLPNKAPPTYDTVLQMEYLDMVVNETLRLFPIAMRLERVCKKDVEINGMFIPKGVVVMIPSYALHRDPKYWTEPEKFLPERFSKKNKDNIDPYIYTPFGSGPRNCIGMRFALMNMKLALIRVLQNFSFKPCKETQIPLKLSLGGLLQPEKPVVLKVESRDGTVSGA

Row | SMILES | GI50 ([1]; SW1573, 48 h) [nM] | GI50 at 48 h [2] [nM] | IC50 ([3]; 24 h) [nM] | IC50 ([3]; 48 h) [nM] | IC50 ([3]; 72 h) [nM] | IC50 [5] [nM] | Release of LDH [6] | also measured
1 | COc1cccc2c1C(=O)c1c(O)c3c(c(O)c1C2=O)C[C@@](O)(C(=O)CO)C[C@@H]3O[C@H]1C[C@H](N)[C@H](O)[C@H](C)O1 [Dox, doxorubicin] | 70 ± 8.6 | 1600 | 6110 ± 660 | 460 ± 30 | 190 ± 10 | 9680 ± 890 | increased the release of LDH in a concentration-dependent manner | LDH release (cytotoxicity) compared with Sdox ([4]; HepG2, regardless of timing of exposure (24, 48, 72 h)): cytotoxic at concentrations lower than those of Sdox; Effect on hERG currents ([7]; up to 100 μM): did not affect; Effect on zebrafish ABCB4 ATPase activity [8]: no major effect
2 | COc1cc2c(c(OC)c1OC)-c1ccc(OC)c(=O)cc1[C@@H](NC(C)=O)CC2 [Colchicine, colchicine] | 67 ± 15 | 2370 |  |  |  |  |  | 
3 | CC[C@]1(O)C[C@H]2CN(CCc3c([nH]c4ccccc34)[C@@](C(=O)OC)(c3cc4c(cc3OC)N(C=O)[C@H]3[C@@](O)(C(=O)OC)[C@H](OC(C)=O)[C@]5(CC)C=CCN6CC[C@]43[C@@H]65)C2)C1 [Vincristine, vincristine] |  |  |  |  |  |  |  | GI50 ([1]; SW1573, w/o verapamil, 48 h exposure, mean ± SD (n = 3–5), read-out: GI50): 3.9 ± 1.5 nM; GI50 at 48 h ([2]; SW1573/P-gp cells (P-gp-overexpressing variant of SW1573)): 86 ± 15 nM
4 | CC[C@]1(O)C[C@@H]2CN(CCc3c([nH]c4ccccc34)[C@@](C(=O)OC)(c3cc4c(cc3OC)N(C)[C@H]3[C@@](O)(C(=O)OC)[C@H](OC(C)=O)[C@]5(CC)C=CCN6CC[C@]43[C@@H]65)C2)C1 [Vinblastine, vinblastine] | 0.94 ± 0.35 | 16 ± 4.7 |  |  |  |  |  | 
5 | COc1cccc2c1C(=O)c1c(O)c3c(c(O)c1C2=O)C[C@@](O)(C(=O)COC(=O)c1ccc(-c2ssc(=S)c2-c2ccccc2)cc1)C[C@@H]3O[C@H]1C[C@H](N)[C@H](O)[C@H](C)O1 [Sdox, 2-((2S,4S)-4-(((2R,4S,5S,6S)-4-amino-5-hydroxy-6-methyltetrahydro-2H-pyran-2-yl)oxy)-2,5,12-trihydroxy-7-methoxy-6,11-dioxo-1,2,3,4,6,11-hexahydrotetracen-2-yl)-2-oxoethyl 4-(4-phenyl-3-thioxo-3H-1,2-dithiol-5-yl)benzoate] | 873 ± 410 |  | 8690 ± 310 | 3210 ± 160 | 1390 ± 30 | 16500 ± 1010 | increased the release of LDH in a concentration-dependent manner | GI50 [2]: 3020 nM; Times less affected by P-gp compared with parent compound Dox [9]: ca. 6.5 times; Concentration at which LDH release was increased ([4]; HepG2, 24 and 48 h of treatment, only at the maximum concentration tested): 10 µM; Lowest concentration at which LDH release was increased ([4]; HepG2, 72 h of treatment): 4 µM; Reduced GSH [10]: lower decrease in the reduced GSH; Effect on hERG currents ([7]; up to 10 μM): did not affect; Effect on number of live embryos [11, 14]: ineffective; Embryos alive [11, 14]: ~90%; Developmental toxicity ([11]; 10 µM, 72 hpf): did not display developmental toxicity; Concentration above which a precipitate was observed ([11]; zebrafish embryo medium): > 10 µM; IC50 [12]: 3100 nM; MDA levels (index of lipid peroxidation) [13]: lower increase in the MDA levels
6 | CC(=O)O[C@H]1C(=O)[C@@]2(C)[C@H]([C@H](OC(=O)c3ccccc3)[C@]3(O)C[C@H](OC(=O)[C@H](O)[C@@H](NC(=O)c4ccccc4)c4ccccc4)C(C)=C1C3(C)C)[C@]1(OC(C)=O)CO[C@@H]1C[C@@H]2O [Paclitaxel, paclitaxel] | 0.53 ± 0.22 | 298 ± 113 |  |  |  |  |  | 
